According to US8674118B2, “Compounds and methods for the treatment or prevention of flavivirus infections” (priority 2005, dated 2014):

test system: HCV RNA replication (replicon cell lines Huh-7, 5.2 and ET); test: Cell-Based Luciferase Reporter HCV RNA Replication Assay; details: Hepatitis C virus, Huh-7, 96 h

SMILES | IC50
CCON=C1CCC(N(c2cc(C3=CCCCC3)sc2C(=O)O)C(=O)[C@H]2CC[C@H](C)CC2)CC1 (relative stereo) [Compound 54, 5-cyclohex-1-enyl-3-[(4-ethoxyimino-cyclohexyl)-(trans-4-methyl-cyclohexanecarbonyl)-amino]-thiophene-2-carboxylic acid] | < 5 µM

same assay, conditions: Hepatitis C virus, Huh-7, 96 h, Huh-7, 5.2 or ET replicon cells, luciferase counts after 4 days incubation; read-out: IC50

SMILES | IC50
CC1CCC(C(=O)N(c2cc(C3=CCCCC3)sc2C(=O)O)C2CCC3CCCCC3C2)CC1 (mixture of isomers) [Compound 65, 5-cyclohex-1-enyl-3-[(cis/trans-decahydro-naphthalen-2-yl)-(4-trans-methyl-cyclohexanecarbonyl)-amino]-thiophene-2-carboxylic acid] | < 5 µM
CC1CCC(C(=O)N(c2cc(C3CCC(O)CC3)sc2C(=O)O)C2CCC(O)CC2)CC1 (mixture of isomers) [Compound 85, 5-(4-cis/trans-hydroxy-cyclohexyl)-3-[(4-trans-hydroxy-cyclohexyl)-(4-trans-methyl-cyclohexanecarbonyl)-amino]-thiophene-2-carboxylic acid] | 5 to 25 µM
COCC1CCC(N(C(=O)C2CCC(C)CC2)c2cc(C3=CCCCC3)sc2C(=O)O)CC1 (mixture of isomers) [Compound 126, 5-cyclohex-1-enyl-3-[(4-cis/trans-methoxymethyl-cyclohexyl)-(4-trans-methyl-cyclohexanecarbonyl)-amino]-thiophene-2-carboxylic acid] | < 5 µM
CC1CC=C(c2cc(N(C(=O)[C@H]3CC[C@H](C)CC3)[C@H]3CC[C@H](O)CC3)c(C(=O)O)s2)CC1 (relative stereo) [Compound 4, 3-[(trans-4-Hydroxy-cyclohexyl)-(trans-4-methyl-cyclohexanecarbonyl)-amino]-5-(4-methyl-cyclohex-1-enyl)-thiophene-2-carboxylic acid] | < 5 µM
CC(C)(C)C1CC=C(c2cc(N(C(=O)[C@H]3CC[C@H](C)CC3)[C@H]3CC[C@H](O)CC3)c(C(=O)O)s2)CC1 (relative stereo) [Compound 13, 5-(4-Tert-butyl-cyclohex-1-enyl)-3-[(trans-4-hydroxy-cyclohexyl)-(trans-4-methyl-cyclohexanecarbonyl)-amino]-thiophene-2-carboxylic acid] | < 5 µM
C[C@H]1CC[C@H](C(=O)N(c2cc(C3=CCCCC3)sc2C(=O)O)C2CCC(OC(=O)N3CCOCC3)CC2)CC1 (relative stereo) [Compound 18, Morpholine-4-carboxylic acid 4-[(2-carboxy-5-cyclohex-1-enyl-thiophen-3-yl)-(trans-4-methyl-cyclohexanecarbonyl)-amino]-cyclohexyl ester] | < 5 µM
COC(=O)C(NC(=O)O[C@H]1CC[C@H](N(c2cc(C3=CCCCC3)sc2C(=O)O)C(=O)[C@H]2CC[C@H](C)CC2)CC1)C(C)C (relative stereo) [Compound 19, 5-Cyclohex-1-enyl-3-[[trans-4-(1-methoxycarbonyl-2-methyl-propylcarbamoyloxy)-cyclohexyl]-(trans-4-methyl-cyclohexanecarbonyl)amino]-thiophene-2-carboxylic acid] | < 5 µM
CN1C(=O)N(C)C2(CCC(N(c3cc(C4=CCCCC4)sc3C(=O)O)C(=O)[C@H]3CC[C@H](C)CC3)CC2)C1=O (relative stereo) [Compound 32, 5-cyclohex-1-enyl-3-[(1,3-dimethyl-2,4-dioxo-1,3-diaza-spiro[4.5]dec-8-yl)-(trans-4-methyl-cyclohexanecarbonyl)-amino]-thiophene-2-carboxylic acid] | < 5 µM
C[C@H]1CC[C@H](C(=O)N(c2cc(C3=CCC(Oc4ccccc4)CC3)sc2C(=O)O)[C@H]2CC[C@H](O)CC2)CC1 (relative stereo) [Compound 33, 3-[(trans-4-hydroxy-cyclohexyl)-(trans-4-methyl-cyclohexanecarbonyl)-amino]-5-(4-phenoxy-cyclohex-1-enyl)-thiophene-2-carboxylic acid] | < 5 µM
CC1OCC(N(c2cc(C3=CCCCC3)sc2C(=O)O)C(=O)[C@H]2CC[C@H](C)CC2)CO1 (relative stereo) [Compound 36, 5-cyclohex-1-enyl-3-[(trans-4-methyl-cyclohexanecarbonyl)-(2-methyl-[1,3]dioxan-5-yl)-amino]-thiophene-2-carboxylic acid] | < 5 µM
CC1CCCC(N(c2cc(C3=CCCCC3)sc2C(=O)O)C(=O)[C@H]2CC[C@H](C)CC2)C1 (relative stereo) [Compound 39, 5-cyclohex-1-enyl-3-[(trans-4-methyl-cyclohexanecarbonyl)-(3-methyl-cyclohexyl)-amino]-thiophene-2-carboxylic acid] | < 5 µM
C[C@H]1CC[C@H](C(=O)N(c2cc(C3=CCCCC3)sc2C(=O)O)C2CC3CCC(C3)C2)CC1 (relative stereo) [Compound 40, 3-[bicyclo[3.2.1]oct-3-yl-(trans-4-methylcyclohexanecarbonyl)-amino]-5-cyclohex-1-enyl-thiophene-2-carboxylic acid] | < 5 µM
CC1CC=C(c2cc(N(C(=O)[C@H]3CC[C@H](C)CC3)C(C)C)c(C(=O)O)s2)CC1 (relative stereo) [Compound 43, 3-[isopropyl-(trans-4-methyl-cyclohexanecarbonyl)-amino]-5-(4-methyl-cyclohex-1-enyl)-thiophene-2-carboxylic acid] | < 5 µM
C[C@H]1CC[C@H](C(=O)N(c2cc(C3=CC(O)CCC3)sc2C(=O)O)[C@H]2CC[C@H](OC3CCCCO3)CC2)CC1 (relative stereo) [Compound 55, 5-(3-hydroxy-cyclohex-1-enyl)-3-{(trans-4-methyl-cyclohexanecarbonyl)-[trans-4-(tetrahydro-pyran-2-yloxy)-cyclohexyl]amino}-thiophene-2-carboxylic acid] | < 5 µM
C[C@H]1CC[C@H](C(=O)N(c2cc(C3=CCCCC3)sc2C(=O)O)C2CC[S+]([O-])CC2)CC1 (relative stereo) [Compound 69, 5-cyclohex-1-enyl-3-[(trans-4-methyl-cyclohexanecarbonyl)-(1-oxo-hexahydro-1lambda*4*-thiopyran-4-yl)-amino]-thiophene-2-carboxylic acid] | < 5 µM
CN1C(=O)N(C)C2(CCC(N(c3cc(C4=CCC(C)(C)CC4)sc3C(=O)O)C(=O)[C@H]3CC[C@H](C)CC3)CC2)C1=O (relative stereo) [Compound 75, 5-(4,4-dimethyl-cyclohex-1-enyl)-3-[(1,3-dimethyl-2,4-dioxo-1,3-diaza-spiro[4.5]dec-8-yl)-(trans-4-methyl-cyclohexanecarbonyl)-amino]-thiophene-2-carboxylic acid] | < 5 µM
CN1C(=O)N(C)C2(CCC(N(c3cc(C4CCC(C)(C)CC4)sc3C(=O)O)C(=O)[C@H]3CC[C@H](C)CC3)CC2)C1=O (relative stereo) [Compound 79, 5-(4,4-dimethyl-cyclohexyl)-3-[(1,3-dimethyl-2,4-dioxo-1,3-diaza-spiro[4.5]dec-8-yl)-(trans-4-methyl-cyclohexanecarbonyl)-amino]-thiophene-2-carboxylic acid] | < 5 µM
C[C@H]1CC[C@H](C(=O)N(c2cc(C3=CC(O)CCC3)sc2C(=O)O)[C@H]2CC[C@H](O)CC2)CC1 (relative stereo) [Compound 82, 5-(3-hydroxy-cyclohex-1-enyl)-3-[(trans-4-hydroxy-cyclohexyl)-(trans-4-methyl-cyclohexanecarbonyl)-amino]-thiophene-2-carboxylic acid] | 5 to 25 µM
CO[C@H]1CC[C@H](N(c2cc(C3CCC(C(F)(F)F)CC3)sc2C(=O)O)C(=O)[C@H]2CC[C@H](C)CC2)CC1 (relative stereo) [Compound 108, 3-[(trans-4-methoxy-cyclohexyl)-(trans-4-methyl-cyclohexanecarbonyl)-amino]-5-(4-trifluoromethyl-cyclohexyl)-thiophene-2-carboxylic acid] | < 5 µM
CO[C@H]1CC[C@H](N(c2cc(C3=C(F)CCCC3F)sc2C(=O)O)C(=O)[C@H]2CC[C@H](C)CC2)CC1 (relative stereo) [Compound 119, 5-(2,6-difluoro-cyclohex-1-enyl)-3-[(trans-4-methoxy-cyclohexyl)-(trans-4-methyl-cyclohexanecarbonyl)-amino]-thiophene-2-carboxylic acid] | < 5 µM
CO[C@H]1CC[C@H](N(c2cc(C3=C(F)C(F)CCC3)sc2C(=O)O)C(=O)[C@H]2CC[C@H](C)CC2)CC1 (relative stereo) [Compound 120, 5-(2,3-difluoro-cyclohex-1-enyl)-3-[(trans-4-methoxy-cyclohexyl)-(trans-4-methyl-cyclohexanecarbonyl)-amino]-thiophene-2-carboxylic acid] | < 5 µM
CO[C@H]1CC[C@H](N(c2cc(C3=CCC(C(F)(F)F)CC3)sc2C(=O)O)C(=O)[C@H]2CC[C@H](C)CC2)CC1 (relative stereo) [Compound 124, 3-[(trans-4-methoxy-cyclohexyl)-(trans-4-methyl-cyclohexanecarbonyl)-amino]-5-(4-trifluoromethyl-cyclohex-1-enyl)-thiophene-2-carboxylic acid] | < 5 µM
CCC(=O)N(C)C1CCC(N(c2cc(C3=CCCCC3)sc2C(=O)O)C(=O)[C@H]2CC[C@H](C)CC2)CC1 (relative stereo) [Compound 140, 5-cyclohex-1-enyl-3-{(trans-4-methyl-cyclohexanecarbonyl)-[4-(methyl-propionyl-amino)-cyclohexyl]-amino}-thiophene-2-carboxylic acid] | < 5 µM
C[C@H]1CC[C@H](C(=O)N(c2cc(C3=CCCCC3)sc2C(=O)O)[C@H]2CC[C@H](O)CC2)CC1 [Compound 1, 5-Cyclohex-1-enyl-3-[(trans-4-hydroxy-cyclohexyl)-(trans-4-methyl-cyclohexanecarbonyl)-amino]-thiophene-2-carboxylic acid] | < 5 µM
C[C@H]1CC[C@H](C(=O)N(c2cc(C3CCCCC3)sc2C(=O)O)[C@H]2CC[C@H](O)CC2)CC1 [Compound 2, 5-Cyclohexyl-3-[(trans-4-hydroxy-cyclohexyl)-(trans-4-methyl-cyclohexanecarbonyl)-amino]-thiophene-2-carboxylic acid] | < 5 µM
